Values quoted from earlier work in US20240261419A1, “[…] PSILOCIN CONJUGATES FOR TREATMENT OF MENTAL ILLNESSES” (LONDON PHARMACEUTICALS AND RESEARCH CORPORATION, priority 2021, published 2024).
Like-named read-outs stand apart in the source and are kept apart here.

Details: background comparison of pharmacokinetic profiles

Row | SMILES | time to reach maximum plasma level (psilocybin) | time to reach maximum plasma level (CBD)
1 | CN(C)CCc1c[nH]c2cccc(OP(=O)(O)O)c12 [psilocy bin, psilocybin] | 90 min | –
2 | C=C(C)[C@@H]1CCC(C)=C[C@H]1c1c(O)cc(CCCCC)cc1O [CBD, cannabidiol] | – | 240 to 360 min
